The values that follow are results of earlier work, collected in patent US20220339088A1, “METHOD FOR DYEING KERATIN MATERIAL, COMPRISING THE USE OF AN ORGANIC C1-C6 ALKOXY SILANE AND AN ACIDIFIER” (Henkel AG & Co. KGaA, priority 2019, published 2022).

The structures appear in SMILES notation.

The conditions of this data set: 25° C.

With `O=C([O-])c1c(Cl)c(Cl)c(Cl)c(Cl)c1-c1c2c(Br)cc(=O)c(Br)c-2oc2c(Br)c(O)cc(Br)c12.O=C([O-])c1c(Cl)c(Cl)c(Cl)c(Cl)c1-c1c2c(Br)cc(=O)c(Br)c-2oc2c(Br)c(O)cc(Br)c12.[Na+].[Na+]` [Acid Red 92, disodium salt of 3,4,5,6-tetrachloro-2-(1,4,5,8-tetrabromo-6-hydroxy-3-oxoxanthen-9-yl)benzoic acid], the solubility in water result is “greater than 10 g/L”. With `O=S(=O)([O-])c1ccc(N=Nc2c(O)ccc3ccccc23)cc1.[Na+]` [Acid Orange 7, sodium salt of 4-[(2-hydroxy-1-naphthyl)azo]benzene sulphonate], the solubility in water result is on record as “more than 7 g/L”.

For the compound `Nc1cc(S(=O)(=O)[O-])cc2cc(S(=O)(=O)[O-])c(N=Nc3ccccc3)c(O)c12.[Na+].[Na+]` [Acid Red 33, diantrium salt of 5-amino-4-hydroxy-3-(phenylazo)-naphthalene-2,7-disulphonate], the solubility in water was 2500 µg/mL. On to `O=C([O-])C1=NN(c2ccc(S(=O)(=O)[O-])cc2)C(=O)C1N=Nc1ccc(S(=O)(=O)[O-])cc1.[Na+].[Na+].[Na+]` (stereo not shown) [Acid Yellow 23, trisodium salt of 4,5-dihydro-5-oxo-1-(4-sulfophenyl)-4-((4-sulfophenyl)azo)-1H-pyrazole-3-carboxylic acid], for which the “solubility in water (in words)” value is on record as “highly soluble”.
